# Data as given in patent US20160310584A1, “FORMULATIONS FOR NEOPLASIA VACCINES” (THE BROAD INSTITUTE INC., priority 2013, published 2016).
# Read-outs that look alike come from different tables or passages of the source. Where a SMILES comes first, the peptide text is derived from it. Where no end group is shown, it is not given here.
# Legend:
# Type in all cases: physicochemical
# [1] = Dissolution of peptide in D5W without using DMSO; settings: small amount of peptide (<1 mg)
# [2] = Peptide solubility evaluation: dissolution in DMSO, dilution in D5W with or without succinate
# Experimental: (§1) In a representative procedure, peptides were weighed and corrected for % peptide content, and then dissolved in DMSO to a concentration of 50 mg/mL. The DMSO/Peptide solution was then diluted with 5 mM sodium succinate in D5W to a 2 mg/mL peptide concentration.
# Additional peptide solubility conditions were tested. Peptides CS6709, CS6712, CS6720, CS6726, and CS6783 were weighed at approximately 10 mg each. The peptides were then dissolved in approximately 200 μL USP grade DMSO to obtain a 50 mg/mL concentration for each peptide. […] Additional 50 μL increments of DMSO were added to Peptide CS6709 up to 400 μL; for a total of 600 μL of DMSO.
# Based on gross weight and peptide content, 15 mg (net weight) or slightly more of each individual peptide are weighed and 100% USP Grade DMSO […] is added to achieve a final peptide concentration of 50 mg/ml.
# pH of peptide solutions = assay: pH of peptide solutions
# Experimental: as §1
# [3] = Freeze/thaw and frozen storage stability (RP-HPLC, pH, visual inspection); settings: −20° C. stability study
# Experimental: Two individual peptides were dissolved in DMSO/D5W and placed on stability at two temperatures (−20° C. and −80° C.). These peptides were evaluated (RP-HPLC and pH and visual inspection) for up to 24 weeks. […] Any small changes appear to be due to assay variability as no trends were noted to be evaluated.
# A peptide pool (Pool 4) consisting of five peptides was prepared by dissolution in DMSO, dilution with D5W/Succinate (5 mM) to 2 mg/ml and pooling to a final peptide concentration of 400 μg per ml and a final DMSO concentration of 4%. After preparation, peptides were filtered with a 25 mm Pall PES filter (Cat #4612) and dispensed into Nunc Cryo vials (#375418) in one ml aliquots. Samples were analyzed at time zero and at 2 and 4 weeks to date. Additional samples are analyzed at 8 and 24 weeks.
# [4] = DMSO/D5W, Table 4, Y/N, diluted to 2 mg/ml, read-out: Solubility In DMSO/D5W
# [5] = Table 4, Y/N, diluted to 2 mg/ml, read-out: Solubility In DMSO/D5W
# [6] = DMSO/D5W/succinate, Table 4, Y/N, read-out: Solubility in DMSO/D5W/Succinate
# [7] = Table 4, symbol X not defined, peptides dissolved at 50 mg/ml in 100% DMSO, read-out: Solubility in DMSO
Molecule,"solubility [2, 4] [µg/mL]",pH of peptides in DMSO/D5W/5 mM S. Succinate spike (pH of peptide solutions),pH of peptides in DMSO/D5W/5 mM Succinate and Hiltonol (pH of peptide solutions),also measured
H-SPTEPSTKLPGFDSCGNTEIAERKIKRIYGGFK-OH [CS6720],> 2000,,,Dissolution directly in D5W without using DMSO [1]: could be dissolved
H-KKNITNLSRLVVRPDTDAVY-OH [CS7431],,6.45,6.69,
H-WDGPPENDMLLKEICGSLIP-OH [CS7432],,6.22,6.45,
H-FRLIWRSVKNGKSSREQELSWNCSHQVPSLGA-OH [CS6917],> 2000,,,
H-SKRGVGAKTLLLPDPFLFWPCLEGTRRSL-OH [CS6934],,6.57,6.79,Heterodimer formation (mass spectrometry) [3]: can form a heterodimer
KGASLDAGWGSPRWTTTRMTSASAGRSTRA [CS7414],,6.71,6.99,Solubility in DMSO/D5W/Succinate [2]: Y
H-SHVEKAHITAESAQRQGPNGGGEQSANEF-OH [CS6708],> 2000,,,
H-RGLHSQGLGRGRIAMAQTAGVLRSLEQEE-OH [CS6711],> 2000,,,
H-LKDSNSWPPSNKRGFDTEDAHKSNATPVP-OH [CS6712],,,,Dissolution directly in D5W without using DMSO [1]: could be dissolved
H-DSAVDKGHPNRSALSLTPGLRIGPSGLFLVFLA-OH [CS7411],,6.53,6.94,
H-GKSRGQQAQDRARHAAGAAPARPLGALREQ-OH [CS6938],> 2000,,,
H-GTKALQLHSIAGRWPRMEPWVVESMSLGVP-OH [CS7415],,6.61,6.81,
H-LSVPFTCGVNFGDSIEDLEI-OH [CS7428],< 2000,,,
H-DMAWRRNSRLYWLIKMVEQWQEQHLPSLSS-OH [CS6943],> 2000,,,
H-PQLAGGGGSGAPGEHPLLPGGAPLPAGLF-OH [CS6716],> 2000,,,
H-LAASGLHGSAWLVPGEQPVSGPHHGKQPAGV-OH [CS6930],> 2000,,,
H-VSWGKKVQPIDSILADWNEDIEAFEMMEKD-OH [CS6942],< 2000,,,
H-LRVFIGNIAVNHAPVSLRPGLGLPPGAPPGTVP-OH [CS7412],,6.61,6.96,solubility [2]: > 2000 µg/mL
H-AESAQRQGPNGGGEQSANEF-OH [CS7416],,6.31,6.54,
H-SYKKLPLLIFPSHRRAPLLSATGDRGFSV-OH [CS6936],,,,"solubility [2, 5]: > 2000 µg/mL"
H-AHRQGEKQHLLPVFSRLALRLPWRHSVQL-OH [CS6941],,6.49,6.78,
H-VEQGHVRVGPDVVTHPAFLV-OH [CS7427],,6.34,6.52,
H-LLTDRNTSGTTFTLLGVSDYPELQVP-OH [CS7409],,6.32,6.62,"solubility [2]: > 2000 µg/mL; solubility [2, 6]: > 2000 µg/mL"
H-PPYPYSSPSLVLPTEPHTPKSLQQPGLPS-OH [CS6715],> 2000,,,
H-SKLPYPVAKSGKRALARGPAPTEKTPHSGAQLG-OH [CS6719],> 2000,,,
H-YLLPKTAVVLRCPALRVRKP-OH [CS7418],,6.76,6.96,
H-IGALNPKRAAFFAEHYESWE-OH [CS7420],,6.38,6.56,solubility [2]: > 2000 µg/mL

Molecule,"solubility [2, 4] [µg/mL]",pH of peptides in DMSO/D5W/5 mM S. Succinate spike (pH of peptide solutions),pH of peptides in DMSO/D5W/5 mM Succinate and Hiltonol (pH of peptide solutions),also measured
H-KLAWRGRISSSGCPSMTSPPSPMFGMTLHT-OH [CS6919],,6.74,6.99,Heterodimer formation (mass spectrometry) [3]: can form a heterodimer
H-KKEKAEKLEKERQRHISKPLLGGPFSLTTHTGE-OH [CS6718],> 2000,,,
H-LTDLPGRIRVAPQQNDLDSPQQISISNAE-OH [CS6709],,,,"Dissolution directly in D5W without using DMSO [1]: could be dissolved; solubility [2, 7]: < 50000 µg/mL"
H-VAGLAASGLHGSAWLVPGEQPVSGPHHGKQ-OH [CS6931],,6.42,6.66,
H-KPKKVAGAATPKKSIKRTPKKVKKPATAAGTKK-OH [CS6717],> 2000,,,
H-APALGPGAASVASRCGLDPALAPGGSHMLRA-OH [CS6927],> 2000,,,
H-GLLSDGSGLGQITWASAEHLQRPGAGAELA-OH [CS6914],> 2000,,,
H-PLMQTELHQLVPEADPEEMA-OH [CS7430],,6.23,6.37,
H-PIQVFYTKQPQNDYLHVALVSVFQIHQEAPSSQ-OH [CS6729],> 2000,,,
H-GTYLQGTASALSQSQERPPSVNRVPPSSPSSQE-OH [CS6725],> 2000,,,
H-SGQPAPEETVLFLGLLHGLLLILRRLRGG-OH [CS6937],,6.51,6.76,solubility [2]: > 2000 µg/mL
CC[C@H](C)[C@H](NC(=O)[C@H](CS)NC(=O)[C@H](CC(C)C)NC(=O)[C@@H](N)CC(=O)O)C(=O)N[C@@H](CS)C(=O)N1CCC[C@H]1C(=O)N[C@@H](CCCNC(=N)N)C(=O)N[C@@H](CO)C(=O)N[C@@H](Cc1c[nH]cn1)C(=O)N[C@@H](CCCNC(=N)N)C(=O)NCC(=O)N[C@@H](C)C(=O)N[C@@H](Cc1ccccc1)C(=O)N[C@@H](CCC(N)=O)C(=O)N[C@@H](CC(C)C)C(=O)N[C@@H](CC(C)C)C(=O)N1CCC[C@H]1C(=O)N[C@@H](CO)C(=O)N[C@@H](C)C(=O)N[C@@H](CC(C)C)C(=O)N[C@@H](CC(C)C)C(=O)N[C@H](C(=O)N[C@@H](CCCNC(=N)N)C(=O)N[C@H](C(=O)N[C@@H](CC(C)C)C(=O)N[C@@H](CCC(=O)O)C(=O)NCC(=O)N[C@@H](CO)C(=O)N[C@@H](CC(=O)O)C(=O)N[C@@H](CO)C(=O)O)C(C)C)C(C)C [CS6932] (H-DLCICPRSHRGAFQLLPSALLVRVLEGSDS-OH),> 2000,,,
H-EPDQEAVQSSTYKDCNTLHLPTERFSPVR-OH [CS6710],> 2000,,,
H-GASRRSSASQGAGSLGLSEEKTLRSGGGP-OH [CS6781],> 2000,,,
H-DSAVDKGHPNRSALSLTPGLRIGPSGIPQAGLG-OH [CS6726],> 2000,,,Dissolution directly in D5W without using DMSO [1]: could be dissolved
H-EEGLLPEVFGAGVPLALCPAVPSAAKPHRPRVL-OH [CS6933],> 2000,,,
H-ALSLTPGLRIGPSGLFLVFLAESAVDKGHPNRS-OH [CS7410],,6.46,6.88,
H-LLTDRNTSGTTFTLLGVSDYPELQVPIPQAGLG-OH [CS7408],,6.31,6.75,"solubility [2]: > 2000 µg/mL; solubility [2, 6]: > 2000 µg/mL"
H-AESAQRQGPLGGGEQSANEF-OH [CS7417],,6.28,6.5,"solubility [2]: > 2000 µg/mL; solubility [2, 6]: > 2000 µg/mL"
H-SYDSVIRELLQKPNVRVVVL-OH [CS7425],> 2000,6.44,6.65,"solubility [2, 6]: < 2000 µg/mL; solubility [2, 7]: < 50000 µg/mL"
H-VQLSIQDVIRRARLSTVPTAQRVALRSGWI-OH [CS7413],,6.73,7.02,
H-PIERVKKNLLKKEYNVSDDSMKLGGNNTSEKAD-OH [CS6721],> 2000,,,
H-DASDFLPDTQLFPHFTELLLPLDPLEGSSV-OH [CS6935],< 2000,,,
H-LPVFIGNIAVNHAPVSLRPGLGLPPGAPPGTVP-OH [CS7438],,6.78,6.96,
H-EDLHLLSVPCPSYKKLPLLIFPSHRRAPLLSA-OH [CS6918],,,,"solubility [2, 5]: > 2000 µg/mL"
H-LPVFIGNIAVNHAPVSLRPGLGLPPGAPPLVVP-OH [CS6730],> 2000,,,
